Results as given in article PMC8424644, “Thermodynamic Stability and Speciation of Ga(III) and Zr(IV) Complexes with High-Denticity Hydroxamate Chelators” (Inorganic Chemistry, 2021).
Marks after values point to notes of the source that are not given here.

How the values were obtained:
Assay type in all cases: physicochemical
[1] = Ligand protonation constants, potentiometric titrations
Description: The metal affinity of a ligand depends on its acid-base properties; therefore, the protonation equilibria of […] and […] were first investigated. The proton-dissociation processes of the ligands were followed by potentiometric titrations in the pH range 2-11. The hydrolytic stability of the ligands was monitored by a second titration of the same sample with NaOH, following back-acidification of the initially titrated sample. […] As was previously reported in the example of α- and β-alanine hydroxamic acids, the amino group may be more acidic than the hydroxamic group, or vice versa. […] However, such a precise analysis is not needed for the determination of the stability of […]-metal complexes and therefore was not performed. […] The potentiometric titrations of ligands and their complexes were carried out using a Titrando 905 (Metrohm) automatic titrator system, equipped with a combined glass electrode (Mettler Toledo, InLab Semi-Micro, with […] Polymer filling) and a 800 Dosino dosing system, equipped with a a 2 mL micro buret. The ionic strength was fixed at I = 0.1 M with NaClO4. The electrode was calibrated daily in terms of hydrogen ion concentration using HClO4 (0.1 M) with CO2-free NaOH solutions (0.1 M).[76] A stream of high-purity argon, presaturated with water vapor, was passed over the surface of the solution cell, the cell was filled with 50 mL of the studied solution, and the system was thermostated at 25.0 ± 0.2 °C. At least three titrations were performed for each system, with a starting concentration of the ligand of 1 mM and a 1:1 metal to ligand molar ratio with a 10% excess of the ligand in the pH range 2-11. The purity and exact concentration of the ligand solutions were determined using the Gran method.[77] Special care was taken to ensure that complete equilibration was attained. […] The potentiometric data were refined with the […][78] and […][79] programs, which use nonlinear least-squares methods.

[2] = pFe calculation (ligand sequestering ability); settings: pH=7.4, cL=10 μM, metal 1 μM
Description: Despite a large variety of PET chelators synthesized and tested in order to provide strong coordination of Ga(III) and Zr(IV) in vivo, until now it is has been hard to avoid the release of these metal ions in the body. Here we report two new Ga(III) and Zr(IV) hydroxamate chelators, designed to achieve an efficient sequestering of these metal ions but also to understand how the cyclization and the introduction of an additional hydroxamate group influences the stability of Zr(IV) complexes. Therefore, it is important to evaluate and compare the Ga(III)- and Zr(IV)-sequestering abilities of […] and […] with those of other chelators. […] page 15: 100 100 [ZrL4]+ [ZrL3]+ [ZrL4H ] -1 80 [ZrL3H ] 80 2+ -1 [ZrHL4] […] Experimental section. Ligands' sequestering ability Table S3. pFe values with various synthetic and biological chelators a Ligand pFe Chelating groups and ligands geometry […] 24.3 3 hydroxamate groups in a cyclic arrangement […] 23.3 4 hydroxamate groups in a linear arrangement […] 26.9 3 hydroxamate groups in a cyclic arrangement […] 23.61 3 hydroxamate groups in a linear arrangement […] DFOE 27.73 3 hydroxamate groups in a cyclic arrangement […] protonation and stability constants given in original publications; the hydrolysis constants of Fe(III) ions were taken from the literature14 and are given in the experimental section 15 (also on this page, place not known: […]

[3] = Fe(III) complex stability, potentiometric titrations; settings: 25 °C, I = 0.1 M NaClO4
Description: To evaluate the thermodynamic stability of Ga(III) and Zr(IV) complexes of the investigated ligands, the binding properties and speciation of Fe(III) complexes have first been determined (all the details are given in the Supporting Information). There are several reasons for this protocol. First, (i) the electron configuration of Ga(III) (d^10) and Zr(IV) (d^0) hinders the attainment of spectral information for most of the complexes. Furthermore, (ii) both metal ions are highly acidic and they are readily hydrolyzed over almost the entire pH range. In addition, (iii) the high charge to size ratio of the Zr(IV) ion implies the formation of complexes with an exceptional thermodynamic stability (already at very low pH); as a consequence, the stability constants cannot be directly determined using standard potentiometric titrations. Thus, the thermodynamic stability constants of the Fe(III)-H3L1 and Fe(III)-H4L2 systems were first determined (using a combination of potentiometric and pH-dependent UV–vis titrations), followed by Fe(III)–Ga(III) and Fe(III)–Zr(IV) metal–metal competition experiments. […]
Accordingly, the following speciation could be drawn from the spectra collected: the complexes formation starts at pH<1 involving two hydroxamate groups coordinated to Fe(III) ion, while the three hydroxamate complexes are observed over pH range 3-9. Above pH 9, the absorbance begins to […]

[4] = potentiometric titrations, 25 °C, I = 0.1 M NaClO4

SMILES	log K LH2 (ligand protonation) [1, 4]	log K LH3 (ligand protonation) [1, 4]	log K LH (ligand protonation) [1, 4]	log β LH2 (ligand protonation) [1, 4]	log β LH3 (ligand protonation) [1, 4]	log β LH (ligand protonation) [1, 4]	pFe [2]	log β [FeL] [3]	protonation constant of the amino group (log K) ([1]; not detectable in the experimental pH range 2–11, assumed on the basis of DFOB)	log K LH4 (ligand protonation) [1, 4]	log β LH4 (ligand protonation) [1, 4]	log β [FeHL] [3]
O=C1CCCN(O)C(=O)CCCNC(=O)CCCN(O)C(=O)CCCNC(=O)CCCN(O)C(=O)CCCN1 [H3L1, 1,11,21-Trihydroxy-1,6,11,16,21,26-hexaazacyclotriacontane-2,7,12,17,22,27-hexaone]	9.24 ^d	8.31 ^d	9.89 ^d	19.13(1) ^d	27.44(1) ^d	9.89(1) ^d	24.3	28.7(1) ^d	–	–	–	–
N[C@H]1CCCCNC(=O)CCCN(O)C(=O)CCCNC(=O)CCCN(O)C(=O)CCCNC(=O)CCCN(O)C(=O)CCCNC(=O)CCCN(O)C(=O)CCCNC1=O [H4L2, (S)-43-Amino-6,16,26,36-tetrahydroxy-1,6,11,16,21,26,31,36,41-nonaazacycloheptatetracontane-2,7,12,17,22,27,32,37,42-nonaone]	9.59 ^d	8.94 ^d	10.06 ^d	19.65(1) ^d	28.59(1) ^d	10.06(1) ^d	23.3	–	> 11	8.18 ^d	36.77(1) ^d	36.82(6) ^d
